Drawing on US20230265151A1, “GIP/GLP1 CO-AGONIST COMPOUNDS” (priority 2020, published 2023), this text covers Ki, EC50 and Emax for three compounds.

Assay [1] deals with T1, human Gcg receptor (hGcgR) (Homo sapiens, UniProt P47871).
T1 construct: expressed in transfected cells; crude membranes
In words: [125I]-Glucagon binding, SPA with membranes of HEK293 cells expressing hGcgR.

In assay [2] the target is hGLP-1R (Homo sapiens, UniProt P43220). In words: Functional cAMP formation (HTRF) in HEK-293 clonal cells expressing hGLP-1R, 0.1% bovine casein, without or with 1.0% human serum albumin. The format is cell-based. Details: expressed in transfected cells. The method in brief: (§1)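 Cells were stimulated with peptide for 30 min at 37° C, then intracellular cAMP was measured by competitive HTRF (665/620 nm ratio) and converted to nM using a cAMP standard curve. Relative EC50 and Emax came from four-parameter logistic fits of percent maximal response against peptide concentration.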
Chain of hGLP-1R (P43220 24-463): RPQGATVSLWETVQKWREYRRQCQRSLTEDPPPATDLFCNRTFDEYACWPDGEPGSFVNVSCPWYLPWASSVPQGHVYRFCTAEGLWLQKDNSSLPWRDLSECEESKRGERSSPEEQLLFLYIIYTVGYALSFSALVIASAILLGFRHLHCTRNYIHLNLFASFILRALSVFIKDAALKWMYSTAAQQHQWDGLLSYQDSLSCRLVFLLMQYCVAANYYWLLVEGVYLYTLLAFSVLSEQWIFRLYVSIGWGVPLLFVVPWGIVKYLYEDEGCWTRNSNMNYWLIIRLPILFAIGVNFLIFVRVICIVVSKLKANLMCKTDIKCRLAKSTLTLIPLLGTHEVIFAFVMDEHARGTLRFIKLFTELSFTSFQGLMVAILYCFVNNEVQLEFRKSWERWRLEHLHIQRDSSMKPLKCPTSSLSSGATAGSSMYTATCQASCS

Assay [3] addresses T2, hGIPR (Homo sapiens, UniProt P48546).
T2 construct: expressed in transfected cells
T2 sequence (P48546 22-466): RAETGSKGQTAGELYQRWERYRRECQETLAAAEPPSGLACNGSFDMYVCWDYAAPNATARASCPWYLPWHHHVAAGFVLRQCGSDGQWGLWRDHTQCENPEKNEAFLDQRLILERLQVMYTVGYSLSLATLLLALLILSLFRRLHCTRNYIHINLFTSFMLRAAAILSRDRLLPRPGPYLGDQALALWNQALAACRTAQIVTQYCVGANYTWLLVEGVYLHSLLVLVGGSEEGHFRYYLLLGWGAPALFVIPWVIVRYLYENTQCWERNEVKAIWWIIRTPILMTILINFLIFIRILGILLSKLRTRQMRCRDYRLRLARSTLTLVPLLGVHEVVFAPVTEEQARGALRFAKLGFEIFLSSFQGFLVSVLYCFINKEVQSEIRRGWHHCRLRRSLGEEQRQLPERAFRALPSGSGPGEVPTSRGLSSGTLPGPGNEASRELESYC
In words: Functional cAMP formation (HTRF) in HEK-293 clonal cells expressing hGIPR, 0.1% bovine casein, without or with 1.0% human serum albumin. The format is cell-based. The following applies: for EC50: geometric mean. A digest of the protocol:
as §1
In general terms: cAMP levels reflect the balance of adenylyl cyclase and phosphodiesterase activity.

The target in assay [4] is T3, human GLP-1 receptor (hGLP-1R) (Homo sapiens, UniProt P43220).
T3 construct: expressed in transfected cells; crude membranes
T3 sequence (P43220 24-463): as the sequence (P43220 24-463) above
In words: [125I]-GLP-1 binding, SPA with membranes of HEK293 cells expressing hGLP-1R.

In assay [5] the target is T4, hGCGR (Homo sapiens, UniProt P47871).
T4 construct: expressed in transfected cells
T4 sequence (P47871 26-477): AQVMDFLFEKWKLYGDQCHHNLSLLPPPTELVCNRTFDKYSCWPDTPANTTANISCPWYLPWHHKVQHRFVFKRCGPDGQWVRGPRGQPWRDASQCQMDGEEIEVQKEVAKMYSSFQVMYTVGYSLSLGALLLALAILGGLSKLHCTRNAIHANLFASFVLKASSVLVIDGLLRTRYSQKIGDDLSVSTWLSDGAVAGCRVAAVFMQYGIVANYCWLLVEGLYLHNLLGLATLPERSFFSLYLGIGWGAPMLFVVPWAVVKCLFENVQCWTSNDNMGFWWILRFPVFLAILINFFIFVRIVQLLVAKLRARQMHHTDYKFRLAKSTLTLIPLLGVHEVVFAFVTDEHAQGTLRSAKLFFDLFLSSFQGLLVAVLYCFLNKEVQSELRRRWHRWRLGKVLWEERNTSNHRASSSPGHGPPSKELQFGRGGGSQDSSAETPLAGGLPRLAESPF
In words: Functional cAMP formation (HTRF) in HEK-293 clonal cells expressing hGCGR, 0.1% bovine casein, without or with 1.0% human serum albumin. Type of assay: cell-based. The method in brief: as §1

The mark [6] stands for this setting: human GcgR, geometric mean (SEM, n), read-out: Binding Affinity Ki, nM (SEM, n) hGCGR.
Where [7] appears, read: HEK293, 0.1% bovine casein and 1.0% human serum albumin, 37° C., percent of maximal response to GIP(1-42)NH2, read-out: hGIPR Emax, % ± SEM.
[8] abbreviates: 0.1% bovine casein and 1.0% human serum albumin, 37° C., geometric mean, read-out: hGCGR EC50, nM (SEM, n).
The mark [9] stands for this setting: cAMP, incubated at 37° C., 0.1% bovine casein (no human serum albumin), geometric mean, read-out: hGCGR EC50, nM (SEM, n).

One may read the Ki as a measure of affinity in units of concentration, obtained from inhibition or displacement. As usually defined, the EC50 is the concentration that produces a half-maximal response. For orientation: Emax means the maximal effect, on the per cent scale that the assay sets.

Read-outs that look alike come from different tables or passages of the source. *1 amine or outer side, *2 acyl side, *3 side chain or, on linkers, in order; H or OH if unused. Where a SMILES comes first, the peptide text is derived from it. Side-chain parts run from the residue outwards. [ ]: non-standard residue; d: D form. The star is where a group is joined. Decanoyl(10-(4-HOOC-PhO)) = O=C(O)c1ccc(OCCCCCCCCCC(=O)*)cc1; αMePhe(2-F) = C[C@](N)(Cc1ccccc1F)C(=O)O; γGlu = O=C(O)[C@H](CCC(=O)[*:2])N[*:1]; αMeY = C[C@](N)(Cc1ccc(O)cc1)C(=O)O; αMeL = CC(C)C[C@](C)(N)C(=O)O; Orn = NCCC[C@H](N)C(=O)O; AEEA = NCCOCCOCC(=O)O; Aib = CC(C)(N)C(=O)O Some results are limits rather than exact numbers.

T1 sequence (P47871 26-477): as above

On to `CC[C@H](C)[C@H](NC(=O)[C@H](CC(C)C)NC(=O)[C@](C)(Cc1ccc(O)cc1)NC(=O)[C@@H](CCC(=O)O)NC(=O)[C@@H](NC(=O)[C@H](Cc1ccccc1)NC(=O)[C@H](CCC(=O)O)NC(=O)C(C)(C)NC(=O)[C@H](CCC(N)=O)NC(=O)[C@H](C)NC(=O)[C@H](CCCCNC(=O)COCCOCCNC(=O)COCCOCCNC(=O)CC[C@H](NC(=O)CCCCCCCCCCCCC(=O)O)C(=O)O)NC(=O)[C@H](CCCN)NC(=O)[C@H](CC(=O)O)NC(=O)[C@H](CC(C)C)NC(=O)[C@](C)(CC(C)C)NC(=O)[C@@H](NC(=O)[C@H](CO)NC(=O)[C@@](C)(NC(=O)[C@H](CC(=O)O)NC(=O)[C@H](CO)NC(=O)[C@@H](NC(=O)[C@](C)(Cc1ccccc1F)NC(=O)[C@@H](NC(=O)CNC(=O)[C@H](CCC(=O)O)NC(=O)C(C)(C)NC(=O)[C@@H](N)Cc1ccc(O)cc1)[C@@H](C)O)[C@@H](C)O)C(C)C)[C@@H](C)CC)[C@@H](C)CC)C(=O)N[C@@H](CCC(=O)O)C(=O)NCC(=O)NCC(=O)N[C@@H](CCCCNC(=O)COCCOCCNC(=O)COCCOCCNC(=O)CC[C@H](NC(=O)CCCCCCCCCCCCC(=O)O)C(=O)O)C(=O)N[C@@H](CO)C(=O)N[C@@H](CO)C(=O)NCC(=O)N[C@@H](C)C(=O)N1CCC[C@H]1C(=O)N1CCC[C@H]1C(=O)N1CCC[C@H]1C(=O)N[C@@H](CO)C(N)=O` [Example 52], for which the Ki is more than 966 nM in assay [1] (setting [6]) and 1.16 nM in assay [4] (human GLP-1R, geometric mean (SEM, n), read-out: Binding Affinity Ki, nM (SEM, n) hGLP-1R). Further, the half-maximal effective concentration (EC50) in assay [2] (cAMP, incubated at 37° C., 0.1% bovine casein (no human serum albumin), geometric mean, read-out: hGLP-1R EC50, nM (SEM, n)) was 0.384 nM; in assay [5] (setting [8]), more than 9950 nM; in assay [5] (setting [9]) it was more than 9950 nM. Further, the maximal response (Emax) in assay [3] (setting [7]) was 87.6%.

`CC[C@H](C)[C@H](NC(=O)[C@H](CC(C)C)NC(=O)[C@](C)(Cc1ccc(O)cc1)NC(=O)[C@H](CCCCNC(=O)COCCOCCNC(=O)COCCOCCNC(=O)CC[C@H](NC(=O)CCCCCCCCCOc1ccc(C(=O)O)cc1)C(=O)O)NC(=O)[C@@H](NC(=O)[C@H](Cc1ccccc1)NC(=O)[C@H](CCC(=O)O)NC(=O)C(C)(C)NC(=O)[C@H](CCC(N)=O)NC(=O)[C@H](C)NC(=O)[C@H](CCC(N)=O)NC(=O)[C@H](CCCN)NC(=O)[C@H](CC(=O)O)NC(=O)[C@H](CC(C)C)NC(=O)[C@](C)(CC(C)C)NC(=O)[C@@H](NC(=O)C(C)(C)NC(=O)[C@@H](NC(=O)[C@H](CC(=O)O)NC(=O)[C@H](CO)NC(=O)[C@@H](NC(=O)[C@](C)(Cc1ccccc1F)NC(=O)[C@@H](NC(=O)CNC(=O)[C@H](CCC(=O)O)NC(=O)C(C)(C)NC(=O)[C@@H](N)Cc1ccc(O)cc1)[C@@H](C)O)[C@@H](C)O)C(C)C)[C@@H](C)CC)[C@@H](C)CC)C(=O)N[C@@H](CCCCNC(=O)COCCOCCNC(=O)COCCOCCNC(=O)CC[C@H](NC(=O)CCCCCCCCCOc1ccc(C(=O)O)cc1)C(=O)O)C(=O)NCC(=O)NCC(=O)N1CCC[C@H]1C(=O)N[C@@H](CO)C(=O)N[C@@H](CO)C(=O)NCC(=O)N[C@@H](C)C(=O)N1CCC[C@H]1C(=O)N1CCC[C@H]1C(=O)N1CCC[C@H]1C(=O)N[C@@H](CO)C(N)=O` [Example 446] (H-Y[Aib]EGT[αMePhe(2-F)]TSDV[Aib]I[αMeL]LD[Orn]QAQ[Aib]EFIK([AEEA-AEEA-γGlu-Decanoyl(10-(4-HOOC-PhO))])[αMeY]LIK([AEEA-AEEA-γGlu-Decanoyl(10-(4-HOOC-PhO))])GGPSSGAPPPS-NH2): the Ki stood at 109 nM in assay [1] and 0.382 nM in assay [4]. In addition, the maximum response (Emax) in assay [2] (HEK293, read-out: hGLP-1R Emax, % ± SEM, cAMP, 37° C., 0.1% bovine casein and 1.0% human serum albumin, percent of maximal response to GLP-1(7-36)NH2) is 105%; in assay [3] (HEK293, read-out: hGIPR Emax, % ± SEM, cAMP, 37° C., 0.1% bovine casein and 1.0% human serum albumin, percent of maximal response to GIP(1-42)NH2), 97%; in assay [3] (HEK293, read-out: hGIPR Emax, % ± SEM, cAMP, 37° C., 0.1% bovine casein, percent of maximal response to GIP(1-42)NH2, arithmetic mean), 105%. Besides, the EC50 in assay [2] (hGLP-1R EC50, nM (SEM, n), cAMP, 37° C., 0.1% bovine casein (no human serum albumin), geometric mean) was 0.162 nM; in assay [2] (hGLP-1R EC50, nM (SEM, n), cAMP, 37° C., 0.1% bovine casein and 1.0% human serum albumin, geometric mean (SEM, n)) it was 33.5 nM; in assay [3] (hGIPR EC50, nM (SEM, n), cAMP, 37° C., 0.1% bovine casein (no human serum albumin)), 0.0164 nM; in assay [5] (hGCGR EC50, nM (SEM, n), cAMP, 37° C., 0.1% bovine casein (no human serum albumin), geometric mean), more than 9950 nM; in assay [5] (hGCGR EC50, nM (SEM, n), cAMP, 37° C., 0.1% bovine casein and 1.0% human serum albumin, geometric mean (SEM, n)), more than 9950 nM.

Regarding `CC[C@H](C)[C@H](NC(=O)[C@H](CC(C)C)NC(=O)[C@](C)(Cc1ccc(O)cc1)NC(=O)[C@@H](CCC(=O)O)NC(=O)[C@@H](NC(=O)[C@H](Cc1ccccc1)NC(=O)[C@H](CCC(=O)O)NC(=O)C(C)(C)NC(=O)[C@H](CCC(N)=O)NC(=O)[C@H](C)NC(=O)[C@H](CCCCNC(=O)COCCOCCNC(=O)COCCOCCNC(=O)CC[C@H](NC(=O)CCCCCCCCCCCCC(=O)O)C(=O)O)NC(=O)[C@H](CCCN)NC(=O)[C@H](CC(=O)O)NC(=O)[C@H](CC(C)C)NC(=O)[C@](C)(CC(C)C)NC(=O)[C@@H](NC(=O)[C@H](CO)NC(=O)[C@H](Cc1ccncc1)NC(=O)[C@H](CC(=O)O)NC(=O)[C@H](CO)NC(=O)[C@@H](NC(=O)[C@](C)(Cc1ccccc1F)NC(=O)[C@@H](NC(=O)CNC(=O)[C@H](CCC(=O)O)NC(=O)C(C)(C)NC(=O)[C@@H](N)Cc1ccc(O)cc1)[C@@H](C)O)[C@@H](C)O)[C@@H](C)CC)[C@@H](C)CC)C(=O)N[C@@H](CCCCNC(=O)COCCOCCNC(=O)COCCOCCNC(=O)CC[C@H](NC(=O)CCCCCCCCCCCCC(=O)O)C(=O)O)C(=O)NCC(=O)NCC(=O)N1CCC[C@H]1C(=O)N[C@@H](CO)C(=O)N[C@@H](CO)C(=O)NCC(=O)N[C@@H](C)C(=O)N1CCC[C@H]1C(=O)N1CCC[C@H]1C(=O)N1CCC[C@H]1C(=O)N[C@@H](CO)C(N)=O` [Example 17], the Ki in assay [1] (setting [6]) was more than 966 nM. Besides, the EC50 in assay [2] (0.1% bovine casein and 1.0% human serum albumin, 37° C., geometric mean, read-out: hGLP-1R EC50, nM (SEM, n)) was 48.9 nM; in assay [3] (0.1% bovine casein and 1.0% human serum albumin, 37° C., read-out: hGIPR EC50, nM (SEM, n)), 0.605 nM; in assay [3] (cAMP, incubated at 37° C., 0.1% bovine casein (no human serum albumin), read-out: hGIPR EC50, nM (SEM, n)), 0.0129 nM; in assay [5] (setting [8]), more than 9950 nM; in assay [5] (setting [9]), more than 9950 nM. Besides, the Emax in assay [3] (setting [7]) came out at 88.9 ± 2.36%; in assay [3] (HEK293, percent of maximal response to GIP(1-42)NH2, 37° C., 0.1% bovine casein, arithmetic mean, read-out: hGIPR Emax, % ± SEM) it was 97.5 ± 5.04%.
